Laboratory results from PubChem BioAssay AID652053 (Broad Institute, 2013).

Tested on: Huh7 psiCHECK-miR122 Renilla luciferase reporter, 48 h
Test: suppression of miR-122 activity, Renilla luciferase sensor – cell-based, Huh7 psiCHECK-miR122, cherry-pick, dose response (AID 652053)

Structure (SMILES)	AC40
C[C@]12CC[C@H](O)C[C@H]1CC[C@@H]1[C@@H]2CC[C@]2(C)[C@@H](C3=CC(=O)OC3)CC[C@]12O	5.74 µM
CC(=O)N1CCc2cc(S(=O)(=O)Nc3cccc(C(F)(F)F)c3)ccc21	2.92 µM
O=S(=O)(NCCc1ccncc1)c1cc(Br)ccc1F	2.66 µM
COc1ccc(OC)c(S(=O)(=O)N/N=C\c2ccc3c(c2)OCO3)c1	0.508 µM
CSc1cccc(NS(=O)(=O)c2cc(Br)cnc2N)c1	2.5 µM
Cc1cc(C)c(S(=O)(=O)NCCCn2ccnc2)cc1C	1.45 µM
O=C(Nc1ccc(S(=O)(=O)NCCc2ccccc2)cc1)c1ccco1	2.02 µM
CC(=O)Nc1ccc(S(=O)(=O)Nc2ccc3c(c2)n(C)c(=O)n3C)c(C)c1	3.94 µM
Cc1nc2ccc(S(=O)(=O)Nc3ccccc3C)cc2s1	22.2 µM
COc1ccc(S(=O)(=O)Nc2ccc(C(F)(F)F)cc2)cc1OC	2.12 µM
O=S(=O)(N/N=C\c1cccn1-c1ccccc1)c1ccc2ccccc2c1	0.263 µM
Cc1ccc(S(=O)(=O)n2nc(C)c(Br)c2C)c(C)c1C	12 µM
Nc1ncc(Br)cc1S(=O)(=O)NCCc1ccccc1	0.647 µM
O=S(=O)(Nc1cccc(-c2cn3ccsc3n2)c1)c1ccc(F)cc1	6.48 µM
C=CCNC(=O)c1ccccc1NC(=O)c1ccc(Cl)c(S(=O)(=O)Nc2cc(C)ccc2C)c1	1.38 µM
C[C@@H]1CN([C@H](C)CO)C(=O)c2cccc(NS(=O)(=O)c3cccs3)c2O[C@H]1CN(C)Cc1ccc(C(F)(F)F)cc1	1.6 µM
O=S(=O)(c1ccccc1)c1cc(O)ccc1O	11.5 µM
Cc1cc(C(O)c2ncc(-c3ccccc3)[nH]2)ccc1F (stereo not given)	19.2 µM
CCCNC(=O)C[C@@H]1CC[C@H]2[C@H](COc3ccc(NC(=O)c4ccc5c(c4)OCO5)cc3C(=O)N2C)O1	2.21 µM
Cc1cccc(-c2nn(-c3ccccc3)cc2C(=O)Nc2cccc(S(=O)(=O)NC3=NCCC3)c2)c1	18.3 µM

Structure (SMILES)	AC40
COc1ccccc1NS(=O)(=O)c1cc(NC(=S)NCCN2CCOCC2)ccc1N1CCOCC1	1.71 µM
CCCCOC(=O)NC1CCc2cc(OC)c(OC)c(OC)c2-c2ccc(SC)c(=O)cc21 (stereo not given)	0.863 µM
O=C(Nc1ccc(S(=O)(=O)NCc2ccccc2)cc1)Nc1ccc2c(c1)OCO2	2.08 µM
CC(C)C(=O)NC(=S)Nc1ccc(S(=O)(=O)Nc2ccccc2)cc1	0.461 µM
COc1ccc(OC)c(S(=O)(=O)Nc2ccc3oc4c(c3c2)C(=O)CCC4)c1	17.7 µM
COC(=O)c1cc(S(=O)(=O)Nc2cc(OC)cc(OC)c2)cn1C	2.37 µM
Cc1cc(C)c(S(=O)(=O)Nc2cccc(S(=O)(=O)N3CCOCC3)c2)c(C)c1	2.71 µM
COc1ccc(S(=O)(=O)N(C)C[C@H]2Oc3ccc(N(C)C)cc3C(=O)N([C@H](C)CO)C[C@@H]2C)cc1	9.52 µM
OC(c1ccc(F)cc1)c1ncc(-c2ccccc2F)[nH]1 (stereo not given)	5.16 µM
C[C@H](CO)N1C[C@H](C)[C@@H](CN(C)Cc2ccc(C(F)(F)F)cc2)Oc2ccc(N(C)C)cc2C1=O	0.891 µM
COc1ccc(Cl)cc1N(CC(=O)N1CCCC1)S(=O)(=O)c1ccc(C)cc1	2.49 µM
CC(OC(=O)c1cccc(S(=O)(=O)Nc2cccc(C(F)(F)F)c2)c1)C(=O)Nc1ccc2c(c1)OCCO2 (stereo not given)	3.57 µM
S=C(NCCc1ccccc1)Nc1ccc(Cl)cc1Cl	5.71 µM
O=C(CCc1ccc(S(=O)(=O)NC2CCCCC2)cc1)N(Cc1ccccc1)Cc1ccccc1	2.07 µM
COc1ccc(NC(=O)CCNS(=O)(=O)c2cc(Br)ccc2Br)cc1S(N)(=O)=O	2.1 µM
COc1ccc(NC(C)=O)cc1S(=O)(=O)Nc1ccc(S(=O)(=O)N2CCCCC2)cc1	2.62 µM
CCC(C(=O)Nc1ccc(N2CCOCC2)c(S(=O)(=O)Nc2ccccc2OC)c1)c1ccccc1 (stereo not given)	1.11 µM
OC(c1ccc(Cl)c(F)c1)c1ncc(-c2ccccc2F)[nH]1 (stereo not given)	2.04 µM
CN(Cc1ccccc1)S(=O)(=O)c1ccc(NC(=S)NC(=O)C2CCCC2)cc1	9.75 µM
Cc1ccc(C)c(S(=O)(=O)Nc2ccc(C(=O)N3CCC3)cc2)c1	2.82 µM
